PubChem BioAssay AID1963979 (Molecular Pharmacology Branch, DTP, NCI, 2024)
pIC50: −log10 of the molar value.

Test system: 361931-004-R-J1-PDC multicell spheroid viability
Assay: Anticancer human tumor 361931-004-R-J1-PDC patient-derived colon adenocarcinoma cell line growth inhibition [PI3K]
Conditions: for pIC50: curve of first compound; for viability, T/C: stronger effect = lower value
How it was run: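 Viability of mixed-cell spheroids was determined after exposure to pairwise combinations, one partner being inavolisib, alpelisib, duvelisib or copanlisib. Highest tested concentration matched clinical Cmax where known and 10 microM where not, descending in half-log steps.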

[1] = second compound 0.0316 µM, first compound 0.0316 µM
[2] = second compound 0.0316 µM, first compound 0.1 µM
[3] = second compound 0.0316 µM, first compound 0.316 µM
[4] = second compound 0.0316 µM, first compound 1 µM
[5] = second compound 0.0316 µM, first compound 3.16 µM
[6] = second compound 0.0316 µM, first compound 10 µM
[7] = second compound 0.1 µM, first compound 0.0316 µM
[8] = second compound 0.1 µM, first compound 0.1 µM
[9] = second compound 0.1 µM, first compound 0.316 µM
[10] = second compound 0.1 µM, first compound 1 µM
[11] = second compound 0.1 µM, first compound 3.16 µM
[12] = second compound 0.1 µM, first compound 10 µM
[13] = second compound 0.316 µM, first compound 0.0316 µM
[14] = second compound 0.316 µM, first compound 0.1 µM
[15] = second compound 0.316 µM, first compound 0.316 µM
[16] = second compound 0.316 µM, first compound 1 µM
[17] = second compound 0.316 µM, first compound 3.16 µM
[18] = second compound 0.316 µM, first compound 10 µM
[19] = second compound 1 µM, first compound 0.0316 µM
[20] = second compound 1 µM, first compound 0.1 µM
[21] = second compound 1 µM, first compound 0.316 µM
[22] = second compound 1 µM, first compound 1 µM
[23] = second compound 1 µM, first compound 3.16 µM
[24] = second compound 1 µM, first compound 10 µM
[25] = second compound 3.16 µM, first compound 0.0316 µM
[26] = second compound 3.16 µM, first compound 0.1 µM
[27] = second compound 10 µM, first compound 0.0316 µM
[28] = second compound 10 µM, first compound 0.1 µM
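Also: spheroids exposed to agents for seven days before readout.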

CC1(C)CCC(CN2CCN(c3ccc(C(=O)NS(=O)(=O)c4ccc(NCC5CCOCC5)c([N+](=O)[O-])c4)c(Oc4cnc5[nH]ccc5c4)c3)CC2)=C(c2ccc(Cl)cc2)C1 + Cc1nc(NC(=O)N2CCCC2C(N)=O)sc1-c1ccnc(C(C)(C)C(F)(F)F)c1
pIC50 (second compound 0.0316 µM): 5.38 | pIC50 (second compound 0.1 µM): 5.37 | pIC50 (second compound 0.316 µM): 5.38 | pIC50 (second compound 1 µM): 5.41 | pIC50 (second compound 3.16 µM): 5.57 | pIC50 (second compound 10 µM): 5.82 | viability, T/C [1]: 108% | viability, T/C [2]: 100% | viability, T/C [3]: 111% | viability, T/C [4]: 99.7% | viability, T/C [5]: 64.9% | viability, T/C [6]: 1.71% | viability, T/C [7]: 106% | viability, T/C [8]: 100% | viability, T/C [9]: 108% | viability, T/C [10]: 99.1% | viability, T/C [11]: 67.8% | viability, T/C [12]: 1.27% | viability, T/C [13]: 104% | viability, T/C [14]: 107% | viability, T/C [15]: 96% | viability, T/C [16]: 93% | viability, T/C [17]: 65.6% | viability, T/C [18]: 1.32% | viability, T/C [19]: 87.1% | viability, T/C [20]: 102% | viability, T/C [21]: 84.8% | viability, T/C [22]: 83.1% | viability, T/C [23]: 61.2% | viability, T/C [24]: 0.97% | viability, T/C [25]: 85.7% | viability, T/C [26]: 77% | viability, T/C (second compound 3.16 µM, first compound 0.316 µM): 78.2% | viability, T/C (second compound 3.16 µM, first compound 1 µM): 80% | viability, T/C (second compound 3.16 µM, first compound 3.16 µM): 45.4% | viability, T/C (second compound 3.16 µM, first compound 10 µM): 1.07% | viability, T/C [27]: 65.1% | viability, T/C [28]: 67.7% | viability, T/C (second compound 10 µM, first compound 0.316 µM): 60.3% | viability, T/C (second compound 10 µM, first compound 1 µM): 62.2% | viability, T/C (second compound 10 µM, first compound 3.16 µM): 29% | viability, T/C (second compound 10 µM, first compound 10 µM): 1.43%

CC(Cn1ccc(-c2ccc(C#N)c(Cl)c2)n1)NC(=O)c1cc(C(C)O)[nH]n1 (stereo unspecified) + COc1c(OCCCN2CCOCC2)ccc2c3n(c(=NC(=O)c4cnc(N)nc4)nc12)CCN3
pIC50 (second compound 0.00316 µM): < 5.00 | pIC50 (second compound 0.01 µM): < 5.00 | pIC50 (second compound 0.0316 µM): < 5.00 | pIC50 (second compound 0.1 µM): < 5.00 | pIC50 (second compound 0.316 µM): 7.31 | pIC50 (second compound 1 µM): > 7.50 | viability, T/C (second compound 0.00316 µM, first compound 0.0316 µM): 103% | viability, T/C (second compound 0.00316 µM, first compound 0.1 µM): 92.1% | viability, T/C (second compound 0.00316 µM, first compound 0.316 µM): 97.7% | viability, T/C (second compound 0.00316 µM, first compound 1 µM): 103% | viability, T/C (second compound 0.00316 µM, first compound 3.16 µM): 103% | viability, T/C (second compound 0.00316 µM, first compound 10 µM): 98% | viability, T/C (second compound 0.01 µM, first compound 0.0316 µM): 102% | viability, T/C (second compound 0.01 µM, first compound 0.1 µM): 102% | viability, T/C (second compound 0.01 µM, first compound 0.316 µM): 99.1% | viability, T/C (second compound 0.01 µM, first compound 1 µM): 93.5% | viability, T/C (second compound 0.01 µM, first compound 3.16 µM): 98.1% | viability, T/C (second compound 0.01 µM, first compound 10 µM): 95% | viability, T/C [1]: 95.1% | viability, T/C [2]: 94.7% | viability, T/C [3]: 83.5% | viability, T/C [4]: 93.4% | viability, T/C [5]: 89.4% | viability, T/C [6]: 78% | viability, T/C [7]: 81.5% | viability, T/C [8]: 83.2% | viability, T/C [9]: 76.8% | viability, T/C [10]: 70.3% | viability, T/C [11]: 78% | viability, T/C [12]: 62.1% | viability, T/C [13]: 51.4% | viability, T/C [14]: 49.5% | viability, T/C [15]: 47.6% | viability, T/C [16]: 44% | viability, T/C [17]: 42.4% | viability, T/C [18]: 30.6% | viability, T/C [19]: 20.5% | viability, T/C [20]: 19% | viability, T/C [21]: 15.8% | viability, T/C [22]: 19.5% | viability, T/C [23]: 16.7% | viability, T/C [24]: 11.9%

CC(C)n1nc(-c2ccc3oc(N)nc3c2)c2c(N)ncnc21 + Cc1nc(NC(=O)N2CCCC2C(N)=O)sc1-c1ccnc(C(C)(C)C(F)(F)F)c1
pIC50 (second compound 0.0316 µM): < 7.00 | pIC50 (second compound 0.1 µM): < 7.00 | pIC50 (second compound 0.316 µM): 7.00 | pIC50 (second compound 1 µM): 7.15 | pIC50 (second compound 3.16 µM): 7.27 | pIC50 (second compound 10 µM): 7.67 | viability, T/C (second compound 0.0316 µM, first compound 0.000316 µM): 102% | viability, T/C (second compound 0.0316 µM, first compound 0.001 µM): 101% | viability, T/C (second compound 0.0316 µM, first compound 0.00316 µM): 97.8% | viability, T/C (second compound 0.0316 µM, first compound 0.01 µM): 97.8% | viability, T/C [1]: 101% | viability, T/C [2]: 64.5% | viability, T/C (second compound 0.1 µM, first compound 0.000316 µM): 108% | viability, T/C (second compound 0.1 µM, first compound 0.001 µM): 111% | viability, T/C (second compound 0.1 µM, first compound 0.00316 µM): 99.3% | viability, T/C (second compound 0.1 µM, first compound 0.01 µM): 101% | viability, T/C [7]: 90.2% | viability, T/C [8]: 58.1% | viability, T/C (second compound 0.316 µM, first compound 0.000316 µM): 106% | viability, T/C (second compound 0.316 µM, first compound 0.001 µM): 93.8% | viability, T/C (second compound 0.316 µM, first compound 0.00316 µM): 96.8% | viability, T/C (second compound 0.316 µM, first compound 0.01 µM): 93.7% | viability, T/C [13]: 88.9% | viability, T/C [14]: 49% | viability, T/C (second compound 1 µM, first compound 0.000316 µM): 94.2% | viability, T/C (second compound 1 µM, first compound 0.001 µM): 89% | viability, T/C (second compound 1 µM, first compound 0.00316 µM): 82.3% | viability, T/C (second compound 1 µM, first compound 0.01 µM): 91.3% | viability, T/C [19]: 72.9% | viability, T/C [20]: 39.9% | viability, T/C (second compound 3.16 µM, first compound 0.000316 µM): 83.9% | viability, T/C (second compound 3.16 µM, first compound 0.001 µM): 85.2% | viability, T/C (second compound 3.16 µM, first compound 0.00316 µM): 83.8% | viability, T/C (second compound 3.16 µM, first compound 0.01 µM): 68.9% | viability, T/C [25]: 72.3% | viability, T/C [26]: 29.6% | viability, T/C (second compound 10 µM, first compound 0.000316 µM): 65% | viability, T/C (second compound 10 µM, first compound 0.001 µM): 62.4% | viability, T/C (second compound 10 µM, first compound 0.00316 µM): 64% | viability, T/C (second compound 10 µM, first compound 0.01 µM): 60% | viability, T/C [27]: 45% | viability, T/C [28]: 19.2%
